Molecules are shown by their SMILES. “Also recorded” adds a separate entry of the source. Active and inactive are the calls of the source. How the calls were made is not given here.

The data set concerns CCRIS mutagenicity, Ames/micronucleus/aberration tests. In words: CCRIS mutagenicity studies.
Where [1] appears, read: Test System: AMES SALMONELLA TYPHIMURIUM, Strain/Indicator: TA100, Metabolic Activation: NONE, Method: STANDARD PLATE.

On to `Nc1ccc(Oc2ccc(N)cc2)cc1`, for which the mutagenic call was “active; positive (structural changes); precipitation occurred at 1.3 and 5.0 mg/ml; also recorded: active; positive (structural changes); precipitation occurred at 1.7 and 5.0 mg/ml” (End Point: IN VITRO CHROMOSOMAL ABERRATIONS, Test System: CHL CELLS, Metabolic Activation: NONE); “active; positive (structural changes); precipitation occurred at 1.7 mg/ml” (End Point: IN VITRO CHROMOSOMAL ABERRATIONS, Test System: CHL CELLS, Metabolic Activation: RAT, LIVER, S-9, SODIUM PHENOBARBITAL AND 5,6-BENZOFLAVONE); “active; positive; precipitation occurred at 1600 and 5000 ug/ml; also recorded: active; positive; precipitation occurred at 2000, 3000, 4000 and 5000 ug/ml” (End Point: IN VITRO CHROMOSOMAL ABERRATIONS, Test System: CHO CELLS, Metabolic Activation: RAT, LIVER, S-9, AROCLOR 1254); “active; positive” (Test System: AMES SALMONELLA TYPHIMURIUM, Strain/Indicator: TA97, Metabolic Activation: HAMSTER, LIVER, S-9, AROCLOR 1254 (10%), Method: PREINCUBATION); “inactive; negative” (Test System: AMES SALMONELLA TYPHIMURIUM, Strain/Indicator: TA97, Metabolic Activation: NONE, Method: PREINCUBATION); “active; positive” (Test System: AMES SALMONELLA TYPHIMURIUM, Strain/Indicator: TA97, Metabolic Activation: RAT, LIVER, S-9, AROCLOR 1254 (10%), Method: PREINCUBATION). Further, the mutagenic call runs as follows: (Test System: AMES SALMONELLA TYPHIMURIUM, Strain/Indicator: TA98, Metabolic Activation: HAMSTER, LIVER, S-9, AROCLOR 1254 (10%), Method: PREINCUBATION) “active; positive”; (Test System: AMES SALMONELLA TYPHIMURIUM, Strain/Indicator: TA98, Metabolic Activation: NONE, Method: FLUCTUATION (MICROTITER)) “inactive; negative”; (Test System: AMES SALMONELLA TYPHIMURIUM, Strain/Indicator: TA98, Metabolic Activation: NONE, Method: STANDARD PLATE) “inactive; negative”; (Test System: AMES SALMONELLA TYPHIMURIUM, Strain/Indicator: TA98, Metabolic Activation: RAT LIVER S-9, PHENOBARBITAL AND BETA-NAPHTHOFLAVONE, Method: PREINCUBATION) “active; positive”; (Test System: AMES SALMONELLA TYPHIMURIUM, Strain/Indicator: TA98, Metabolic Activation: RAT, LIVER, S-9, AROCLOR 1254 (10%), Method: PREINCUBATION) “active; positive”; (Test System: AMES SALMONELLA TYPHIMURIUM, Strain/Indicator: TA98, Metabolic Activation: RAT, LIVER, S-9, PCB, Method: PREINCUBATION) “active; positive”. Moreover, the mutagenic call reads like this: (Test System: AMES SALMONELLA TYPHIMURIUM, Strain/Indicator: TA98, Metabolic Activation: RAT, LIVER, S-9, PCB, Method: STANDARD PLATE) “active; positive”; (Test System: AMES SALMONELLA TYPHIMURIUM, Strain/Indicator: TA100, Metabolic Activation: HAMSTER, LIVER, S-9, AROCLOR 1254 (10%), Method: PREINCUBATION) “active; positive”; under setting [1], “inactive; negative”; (Test System: AMES SALMONELLA TYPHIMURIUM, Strain/Indicator: TA100, Metabolic Activation: RAT LIVER S-9, PHENOBARBITAL AND BETA-NAPHTHOFLAVONE, Method: PREINCUBATION) “active; positive”; (Test System: AMES SALMONELLA TYPHIMURIUM, Strain/Indicator: TA100, Metabolic Activation: RAT, LIVER, S-9, AROCLOR 1254 (10%), Method: PREINCUBATION) “active; positive”; (Test System: AMES SALMONELLA TYPHIMURIUM, Strain/Indicator: TA100, Metabolic Activation: RAT, LIVER, S-9, PCB, Method: PREINCUBATION) “active; positive”. For the same compound, the mutagenic call by setting is: (Test System: AMES SALMONELLA TYPHIMURIUM, Strain/Indicator: TA100, Metabolic Activation: RAT, LIVER, S-9, PCB, Method: STANDARD PLATE) “active; positive”; (Test System: AMES SALMONELLA TYPHIMURIUM, Strain/Indicator: TA1535, Metabolic Activation: HAMSTER, LIVER, S-9, AROCLOR 1254 (10%), Method: PREINCUBATION) “active; positive”; (Test System: AMES SALMONELLA TYPHIMURIUM, Strain/Indicator: TA1535, Metabolic Activation: NONE, Method: PREINCUBATION) “inactive; negative”; (Test System: AMES SALMONELLA TYPHIMURIUM, Strain/Indicator: TA1535, Metabolic Activation: RAT LIVER S-9, PHENOBARBITAL AND BETA-NAPHTHOFLAVONE, Method: PREINCUBATION) “inactive; negative”; (Test System: AMES SALMONELLA TYPHIMURIUM, Strain/Indicator: TA1535, Metabolic Activation: RAT, LIVER, S-9, AROCLOR 1254 (10%), Method: PREINCUBATION) “inactive; negative”; (Test System: AMES SALMONELLA TYPHIMURIUM, Strain/Indicator: TA1537, Metabolic Activation: HAMSTER, LIVER, S-9, AROCLOR 1254 (10%), Method: PREINCUBATION) “active; positive”. The mutagenic call (Test System: AMES SALMONELLA TYPHIMURIUM, Strain/Indicator: TA1537, Metabolic Activation: NONE, Method: FLUCTUATION (MICROTITER)) is “inactive; negative”; the mutagenic call (Test System: AMES SALMONELLA TYPHIMURIUM, Strain/Indicator: TA1537, Metabolic Activation: NONE, Method: PREINCUBATION) is “inactive; negative”; the mutagenic call (Test System: AMES SALMONELLA TYPHIMURIUM, Strain/Indicator: TA1537, Metabolic Activation: RAT LIVER S-9, PHENOBARBITAL AND BETA-NAPHTHOFLAVONE, Method: PREINCUBATION) was “inactive; negative”; the mutagenic call (Test System: AMES SALMONELLA TYPHIMURIUM, Strain/Indicator: TA1537, Metabolic Activation: RAT, LIVER, S-9, AROCLOR 1254 (10%), Method: PREINCUBATION) is “inactive; negative”; the mutagenic call (Test System: AMES SALMONELLA TYPHIMURIUM, Strain/Indicator: TA7001, Metabolic Activation: NONE, Method: FLUCTUATION (MICROTITER)) is “inactive; negative”; the mutagenic call (Test System: AMES SALMONELLA TYPHIMURIUM, Strain/Indicator: TA7002, Metabolic Activation: NONE, Method: FLUCTUATION (MICROTITER)) is “inactive; negative”. Moreover, the mutagenic call was “inactive; negative” (Test System: AMES SALMONELLA TYPHIMURIUM, Strain/Indicator: TA7003, Metabolic Activation: NONE, Method: FLUCTUATION (MICROTITER)); “inactive; negative” (Test System: AMES SALMONELLA TYPHIMURIUM, Strain/Indicator: TA7004, Metabolic Activation: NONE, Method: FLUCTUATION (MICROTITER)); “active; positive” (Test System: AMES SALMONELLA TYPHIMURIUM, Strain/Indicator: TA7005, Metabolic Activation: NONE, Method: FLUCTUATION (MICROTITER)); “inactive; negative” (Test System: AMES SALMONELLA TYPHIMURIUM, Strain/Indicator: TA7006, Metabolic Activation: NONE, Method: FLUCTUATION (MICROTITER)); “inactive; negative” (Test System: E.COLI, Strain/Indicator: WP2UVRA, Metabolic Activation: NONE, Method: PREINCUBATION); “inactive; negative” (Test System: E.COLI, Strain/Indicator: WP2UVRA, Metabolic Activation: RAT LIVER S-9, PHENOBARBITAL AND BETA-NAPHTHOFLAVONE, Method: PREINCUBATION).
For the compound `C[N+](C)(C)NCCC(=O)[O-]`, the mutagenic call was “inactive; negative” (Test System: AMES SALMONELLA TYPHIMURIUM, Strain/Indicator: TA98, Metabolic Activation: NONE); “inactive; negative” (Test System: AMES SALMONELLA TYPHIMURIUM, Strain/Indicator: TA98, Metabolic Activation: RAT LIVER S-9, AROCLOR 1254); “inactive; negative” (Test System: AMES SALMONELLA TYPHIMURIUM, Strain/Indicator: TA100, Metabolic Activation: NONE); “inactive; negative” (Test System: AMES SALMONELLA TYPHIMURIUM, Strain/Indicator: TA100, Metabolic Activation: RAT LIVER S-9, AROCLOR 1254).
As to `O=S(=O)(O)Oc1ccc2ccc3cc4ccccc4c4ccc1c2c34`, the mutagenic call (Test System: AMES SALMONELLA TYPHIMURIUM, Strain/Indicator: TA98, Metabolic Activation: NONE, Method: PREINCUBATION) is “active; positive”; the mutagenic call (Test System: AMES SALMONELLA TYPHIMURIUM, Strain/Indicator: TA98, Metabolic Activation: RAT, LIVER, S-9, AROCLOR 1254, Method: PREINCUBATION) is “active; positive”; the mutagenic call (Test System: AMES SALMONELLA TYPHIMURIUM, Strain/Indicator: TA98, Metabolic Activation: RAT, LUNG, S-9, Method: PREINCUBATION) is “active; positive”.
On to `O=[N+]([O-])c1ccc(OC[C@@H]2CO2)cc1`, for which the mutagenic call under setting [1] is “active; positive”.

For the origin of these results see PubChem BioAssay AID1259407 (Chemical Carcinogenesis Research Information System (CCRIS), 2018).
